Source: patent US20260207585A1, “METHODS AND COMPOSITIONS FOR THE TREATMENT OF PARKINSON'S DISEASE, HUNTINGTON'S DISEASE, AMYOTROPHIC LATERAL SCLEROSIS, AND LEARNING DISORDERS” (Cedars-Sinai Medical Center, priority 2022, published 2026)
Where two headings read alike, the source gives them in different places.

Legend:
[1] = biological target: MLL2 Complex (Homo sapiens, UniProt O14686); experiment: Methyltransferase inhibition panel: MLL2 Complex; type: biochemical
Protocol: (§1) The ability of ETP69 to inhibit methyltransferases was tested.

[2] = biological target: PRMT6 (Homo sapiens, UniProt Q96LA8); experiment: Methyltransferase inhibition panel: PRMT6; type: biochemical; settings: NT1721 20 μM, substrate GST-GAR 5 μM
Protocol: as §1

[3] = biological target: EZH2(Y641F) Complex (Homo sapiens, UniProt Q15910, Y641F); experiment: Methyltransferase inhibition panel: EZH2(Y641F) Complex; type: biochemical; settings: NT1721 20 μM; substrate Core Histone 0.05 mg/mL
Protocol: as §1

[4] = biological target: SMYD2 (Homo sapiens, UniProt Q9NRG4); experiment: Methyltransferase inhibition panel: SMYD2; type: biochemical
Protocol: as §1

[5] = biological target: PRMT5/MEP50 Complex (Homo sapiens, UniProt O14744); experiment: Methyltransferase inhibition panel: PRMT5/MEP50 Complex; type: biochemical
Protocol: as §1

[6] = test system: soluble fraction of brain homogenates; experiment: Mass spectrometry proteomics of brain homogenates with IPA; type: in vivo, mice
Protocol: The results included levodopa (L-dopa), a naturally occurring product that is also a drug for the management of Parkinson's motor symptoms.
Mass spectrometry (MS) analysis on the soluble fraction of brain homogenates extracted from the […] WT and neurodegenerative (AD) mice cohort was performed (DMSO-treated WT mice: n=8; ETP69-treated WT mice: n=7; DMSO-treated AD^+ mice: n=6; ETP69-treated AD^+ n=6).
The effects of ETP69 on the molecular pathways related to neuroprotection and cognitive function was assessed.

[7] = biological target: T1, SMYD3 (Homo sapiens, UniProt Q9H7B4); experiment: Methyltransferase inhibition panel: SMYD3; type: biochemical
T1 sequence (Q9H7B4 1-428): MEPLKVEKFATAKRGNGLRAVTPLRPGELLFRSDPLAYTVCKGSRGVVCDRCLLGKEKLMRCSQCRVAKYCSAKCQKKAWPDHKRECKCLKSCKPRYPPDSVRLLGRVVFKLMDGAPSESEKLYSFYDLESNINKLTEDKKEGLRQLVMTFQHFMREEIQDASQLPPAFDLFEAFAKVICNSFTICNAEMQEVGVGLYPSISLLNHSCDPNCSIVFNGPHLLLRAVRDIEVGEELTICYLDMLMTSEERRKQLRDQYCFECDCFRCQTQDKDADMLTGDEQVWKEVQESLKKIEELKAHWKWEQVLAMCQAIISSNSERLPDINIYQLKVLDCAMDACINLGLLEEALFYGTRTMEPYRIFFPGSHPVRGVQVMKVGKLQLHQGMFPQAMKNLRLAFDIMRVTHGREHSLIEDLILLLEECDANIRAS
Protocol: as §1

[8] = biological target: SETD2 (Homo sapiens, UniProt Q9BYW2); experiment: Methyltransferase inhibition panel: SETD2; type: biochemical
Protocol: as §1

[9] = biological target: SETDB1 (Homo sapiens, UniProt Q15047); experiment: Methyltransferase inhibition panel: SETDB1; type: biochemical
Protocol: as §1

[10] = biological target: PRMT1 (Homo sapiens, UniProt Q99873); experiment: Methyltransferase inhibition panel: PRMT1; type: biochemical
Protocol: as §1

[11] = biological target: T2, PRMT7 (Homo sapiens, UniProt Q9NVM4); experiment: Methyltransferase inhibition panel: PRMT7; type: biochemical
T2 sequence (Q9NVM4 1-692): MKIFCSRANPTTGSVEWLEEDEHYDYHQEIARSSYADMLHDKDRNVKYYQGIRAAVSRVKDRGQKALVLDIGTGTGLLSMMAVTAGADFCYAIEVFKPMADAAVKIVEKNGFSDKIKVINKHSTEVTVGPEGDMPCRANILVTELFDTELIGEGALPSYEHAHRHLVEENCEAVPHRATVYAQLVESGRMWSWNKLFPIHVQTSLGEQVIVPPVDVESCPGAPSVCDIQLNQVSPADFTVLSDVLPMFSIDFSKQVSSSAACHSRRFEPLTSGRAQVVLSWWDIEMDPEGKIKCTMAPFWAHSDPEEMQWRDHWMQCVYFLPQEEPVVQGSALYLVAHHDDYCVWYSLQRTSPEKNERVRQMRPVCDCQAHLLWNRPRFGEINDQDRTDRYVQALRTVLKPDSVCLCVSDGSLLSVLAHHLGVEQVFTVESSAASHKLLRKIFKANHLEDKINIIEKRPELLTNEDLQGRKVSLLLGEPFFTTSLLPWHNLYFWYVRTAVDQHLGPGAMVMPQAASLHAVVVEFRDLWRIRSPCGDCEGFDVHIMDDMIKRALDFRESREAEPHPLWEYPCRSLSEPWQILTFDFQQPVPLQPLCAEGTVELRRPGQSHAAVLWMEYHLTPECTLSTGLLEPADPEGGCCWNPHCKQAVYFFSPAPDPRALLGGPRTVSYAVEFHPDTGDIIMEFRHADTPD
Protocol: as §1

[12] = read-out: Enzyme % Activity (relative to DMSO controls) Data 1
[13] = read-out: Enzyme % Activity (relative to DMSO controls) Data 2
[14] = NT1721 20 μM, substrate Nucleosomes 0.05 mg/mL
[15] = NT1721 20 μM, substrate GST-GAR 5 μM

Chain of SMYD2 (Q9NRG4 whole entry): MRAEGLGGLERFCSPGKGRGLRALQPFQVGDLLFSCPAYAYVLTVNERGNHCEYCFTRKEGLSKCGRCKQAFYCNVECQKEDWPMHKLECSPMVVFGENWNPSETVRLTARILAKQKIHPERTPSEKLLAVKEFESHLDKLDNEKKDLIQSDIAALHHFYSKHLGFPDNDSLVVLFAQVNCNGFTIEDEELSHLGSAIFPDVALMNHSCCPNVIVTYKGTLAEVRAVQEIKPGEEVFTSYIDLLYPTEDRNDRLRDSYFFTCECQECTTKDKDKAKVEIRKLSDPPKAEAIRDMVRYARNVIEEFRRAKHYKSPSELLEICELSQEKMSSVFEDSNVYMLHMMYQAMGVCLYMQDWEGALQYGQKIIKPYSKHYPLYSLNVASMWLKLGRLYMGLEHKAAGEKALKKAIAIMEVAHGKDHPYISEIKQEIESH
Chain of MLL2 Complex (O14686 5319-5537): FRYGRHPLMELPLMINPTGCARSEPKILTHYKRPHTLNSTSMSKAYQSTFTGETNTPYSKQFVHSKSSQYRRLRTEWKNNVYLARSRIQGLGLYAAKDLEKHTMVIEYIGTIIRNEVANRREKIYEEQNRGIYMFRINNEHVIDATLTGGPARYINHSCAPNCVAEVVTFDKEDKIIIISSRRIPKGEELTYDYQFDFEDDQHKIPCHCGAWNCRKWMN
Chain of MLL2 Complex (Q9UBL3 whole entry, further chain): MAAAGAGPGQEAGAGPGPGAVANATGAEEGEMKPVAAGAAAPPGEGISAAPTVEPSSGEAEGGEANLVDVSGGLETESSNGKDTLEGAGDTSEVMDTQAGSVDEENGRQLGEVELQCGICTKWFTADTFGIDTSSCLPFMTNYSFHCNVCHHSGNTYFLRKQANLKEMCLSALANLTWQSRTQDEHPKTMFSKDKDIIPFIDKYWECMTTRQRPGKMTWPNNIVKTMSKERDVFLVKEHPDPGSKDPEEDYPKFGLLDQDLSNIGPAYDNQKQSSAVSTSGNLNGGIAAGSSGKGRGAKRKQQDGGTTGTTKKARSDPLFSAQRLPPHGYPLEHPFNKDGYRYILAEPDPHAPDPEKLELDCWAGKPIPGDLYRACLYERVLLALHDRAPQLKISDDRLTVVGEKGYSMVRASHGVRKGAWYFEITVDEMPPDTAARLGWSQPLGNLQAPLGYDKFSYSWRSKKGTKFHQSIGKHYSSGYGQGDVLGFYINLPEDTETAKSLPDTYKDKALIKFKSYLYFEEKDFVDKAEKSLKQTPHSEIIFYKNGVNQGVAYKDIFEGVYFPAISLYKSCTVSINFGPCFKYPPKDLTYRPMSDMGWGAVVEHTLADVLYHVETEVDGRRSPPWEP
Chain of MLL2 Complex (Q9C005 whole entry, further chain): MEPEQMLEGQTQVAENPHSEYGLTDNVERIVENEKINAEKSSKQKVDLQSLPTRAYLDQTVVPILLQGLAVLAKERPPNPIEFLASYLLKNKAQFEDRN
Chain of MLL2 Complex (Q15291 whole entry, further chain): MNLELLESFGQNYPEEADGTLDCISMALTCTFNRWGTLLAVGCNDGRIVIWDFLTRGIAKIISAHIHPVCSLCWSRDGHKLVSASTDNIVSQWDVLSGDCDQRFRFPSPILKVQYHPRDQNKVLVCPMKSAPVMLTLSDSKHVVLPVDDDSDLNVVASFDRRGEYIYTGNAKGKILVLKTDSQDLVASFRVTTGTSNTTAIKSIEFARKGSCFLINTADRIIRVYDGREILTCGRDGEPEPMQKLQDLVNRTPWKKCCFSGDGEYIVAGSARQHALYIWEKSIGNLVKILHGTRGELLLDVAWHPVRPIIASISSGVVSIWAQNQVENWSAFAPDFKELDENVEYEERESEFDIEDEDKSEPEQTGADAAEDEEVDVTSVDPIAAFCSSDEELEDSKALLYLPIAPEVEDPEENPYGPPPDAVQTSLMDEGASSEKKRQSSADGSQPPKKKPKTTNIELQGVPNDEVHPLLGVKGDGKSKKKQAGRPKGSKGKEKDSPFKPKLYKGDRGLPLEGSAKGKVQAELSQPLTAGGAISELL
Chain of SETD2 (Q9BYW2 whole entry): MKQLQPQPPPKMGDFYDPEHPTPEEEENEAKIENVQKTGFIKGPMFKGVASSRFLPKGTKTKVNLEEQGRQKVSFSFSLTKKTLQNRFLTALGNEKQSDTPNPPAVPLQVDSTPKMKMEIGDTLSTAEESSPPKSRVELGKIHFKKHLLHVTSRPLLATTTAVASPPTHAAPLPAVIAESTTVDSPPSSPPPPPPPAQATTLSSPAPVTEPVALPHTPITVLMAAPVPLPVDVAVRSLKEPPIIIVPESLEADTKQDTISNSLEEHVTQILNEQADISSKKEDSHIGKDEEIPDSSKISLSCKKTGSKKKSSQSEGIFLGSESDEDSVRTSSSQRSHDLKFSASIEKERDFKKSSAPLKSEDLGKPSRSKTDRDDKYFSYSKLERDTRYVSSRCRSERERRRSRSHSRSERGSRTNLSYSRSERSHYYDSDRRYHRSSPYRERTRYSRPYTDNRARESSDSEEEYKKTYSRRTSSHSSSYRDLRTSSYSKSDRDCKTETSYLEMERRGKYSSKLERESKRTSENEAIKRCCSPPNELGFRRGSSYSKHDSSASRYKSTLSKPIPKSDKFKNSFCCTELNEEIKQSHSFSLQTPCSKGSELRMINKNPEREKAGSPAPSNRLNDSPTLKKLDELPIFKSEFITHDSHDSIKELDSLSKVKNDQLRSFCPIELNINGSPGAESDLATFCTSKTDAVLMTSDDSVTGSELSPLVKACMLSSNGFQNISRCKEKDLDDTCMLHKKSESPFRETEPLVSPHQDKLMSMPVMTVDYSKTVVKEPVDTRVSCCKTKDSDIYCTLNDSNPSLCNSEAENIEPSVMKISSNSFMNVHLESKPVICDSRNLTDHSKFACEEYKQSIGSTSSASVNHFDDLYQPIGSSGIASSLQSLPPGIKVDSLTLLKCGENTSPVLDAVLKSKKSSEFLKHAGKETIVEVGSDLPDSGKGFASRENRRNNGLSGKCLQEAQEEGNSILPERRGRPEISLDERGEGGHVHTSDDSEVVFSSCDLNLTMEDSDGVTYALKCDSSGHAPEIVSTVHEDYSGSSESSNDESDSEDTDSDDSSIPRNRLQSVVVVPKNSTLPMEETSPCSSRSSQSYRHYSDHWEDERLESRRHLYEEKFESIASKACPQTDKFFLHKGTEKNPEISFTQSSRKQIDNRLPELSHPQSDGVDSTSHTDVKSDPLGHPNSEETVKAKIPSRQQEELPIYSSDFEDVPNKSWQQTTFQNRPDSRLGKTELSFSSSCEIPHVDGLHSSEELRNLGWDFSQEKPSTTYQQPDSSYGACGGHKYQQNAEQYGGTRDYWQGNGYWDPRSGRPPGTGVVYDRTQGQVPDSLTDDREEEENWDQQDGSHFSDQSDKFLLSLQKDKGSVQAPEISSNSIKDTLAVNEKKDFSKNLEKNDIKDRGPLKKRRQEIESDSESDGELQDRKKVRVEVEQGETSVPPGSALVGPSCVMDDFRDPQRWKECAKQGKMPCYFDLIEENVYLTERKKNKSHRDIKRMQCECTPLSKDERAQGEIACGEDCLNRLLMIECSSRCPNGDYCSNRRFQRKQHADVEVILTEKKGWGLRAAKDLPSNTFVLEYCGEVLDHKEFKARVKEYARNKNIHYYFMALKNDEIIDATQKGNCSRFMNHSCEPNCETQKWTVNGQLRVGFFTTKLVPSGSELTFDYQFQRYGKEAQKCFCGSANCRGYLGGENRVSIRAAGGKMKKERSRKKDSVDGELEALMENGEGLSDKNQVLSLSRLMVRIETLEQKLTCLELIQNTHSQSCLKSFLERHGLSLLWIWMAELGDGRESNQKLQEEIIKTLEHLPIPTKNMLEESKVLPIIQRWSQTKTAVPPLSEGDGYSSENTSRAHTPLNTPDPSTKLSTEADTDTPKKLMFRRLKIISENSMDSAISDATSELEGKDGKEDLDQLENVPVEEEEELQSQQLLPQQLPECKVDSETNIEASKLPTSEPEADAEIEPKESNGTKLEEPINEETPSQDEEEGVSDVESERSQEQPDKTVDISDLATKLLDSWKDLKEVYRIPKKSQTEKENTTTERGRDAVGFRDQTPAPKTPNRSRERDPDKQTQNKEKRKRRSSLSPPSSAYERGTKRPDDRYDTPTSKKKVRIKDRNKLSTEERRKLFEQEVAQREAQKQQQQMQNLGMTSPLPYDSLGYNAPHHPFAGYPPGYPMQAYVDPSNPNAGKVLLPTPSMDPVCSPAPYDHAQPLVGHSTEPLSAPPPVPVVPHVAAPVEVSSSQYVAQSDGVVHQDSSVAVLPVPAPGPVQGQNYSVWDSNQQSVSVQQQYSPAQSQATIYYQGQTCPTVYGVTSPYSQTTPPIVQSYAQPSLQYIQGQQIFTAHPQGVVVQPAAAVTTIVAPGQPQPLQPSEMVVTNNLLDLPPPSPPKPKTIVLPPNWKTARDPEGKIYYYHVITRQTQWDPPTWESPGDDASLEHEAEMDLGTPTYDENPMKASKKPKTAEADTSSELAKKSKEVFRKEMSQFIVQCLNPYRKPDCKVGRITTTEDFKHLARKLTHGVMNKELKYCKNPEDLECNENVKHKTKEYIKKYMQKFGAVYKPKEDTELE
Chain of PRMT1 (Q99873 whole entry): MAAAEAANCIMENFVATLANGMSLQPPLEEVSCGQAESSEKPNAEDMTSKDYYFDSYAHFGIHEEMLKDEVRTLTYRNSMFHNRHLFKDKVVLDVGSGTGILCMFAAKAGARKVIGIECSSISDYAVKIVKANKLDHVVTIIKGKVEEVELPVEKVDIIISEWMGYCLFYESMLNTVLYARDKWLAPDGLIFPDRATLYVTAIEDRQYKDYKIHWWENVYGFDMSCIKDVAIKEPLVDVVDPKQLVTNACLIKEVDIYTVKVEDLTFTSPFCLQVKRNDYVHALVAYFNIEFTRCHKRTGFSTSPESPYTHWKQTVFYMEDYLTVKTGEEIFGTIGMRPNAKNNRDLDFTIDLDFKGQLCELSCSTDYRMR

Structure (SMILES): CN1C(=O)[C@@]23C[C@](C)(C#N)[C@H](c4ccc5c(c4)OCO5)N2C(=O)[C@]1(C)SS3 (racemic) [ETP69, Rac-(3S,6S,7S,8aS)-6-(benzo[d][1,3]dioxol-5-yl)-2,3,7-trimethyl-1,4-dioxohexahydro-6H-3,8a-epidithiopyrrolo[1,2-a]pyrazine-7-carbonitrile]
- remaining activity at 20 µM [1, 12]: 19%
- remaining activity at 20 µM [1, 13]: 20.4%
- inhibition relative to DMSO controls ([1]; summary of Table 1): at least 7500
- remaining activity at 20 µM [2, 12]: 128%
- remaining activity at 20 µM [2, 13]: 129%
- Enzyme % Activity (relative to DMSO controls) Data 1 [3]: 102.54%
- Enzyme % Activity (relative to DMSO controls) Data 2 [3]: 102.95%
- remaining activity at 20 µM [4, 12]: 4.23%
- remaining activity at 20 µM [4, 13]: 4.97%
- inhibition relative to DMSO controls ([4]; summary of Table 1): at least 7500
- remaining activity at 20 µM [5, 12]: 92.2%
- remaining activity at 20 µM [5, 13]: 93.1%
- pathways of learning, cognition, quantity of neurons, dendritic growth and branching (IPA) ([6]; AD+ mice): significantly activated
- Mapt protein upregulation ([6]; AD+ mice, p=0.0188): 2.4 fold
- Gfra2 protein ([6]; ETP69-treated mice, p=0.0056): significantly increased
- Lrrn4 protein upregulation ([6]; ETP69-treated versus DMSO-control AD+ mice, p=0.015): 1.73 fold
- brain neurotrophic factors (NTFs) expression including BDNF, VGF and levodopa ([6]; proteome signatures): induced
- remaining activity at 20 µM [7, 12]: 8.99%
- remaining activity at 20 µM [7, 13]: 7.71%
- inhibition relative to DMSO controls ([7]; summary of Table 1): at least 7500
- Enzyme % Activity (relative to DMSO controls) Data 1 [8, 14]: 20.95%
- Enzyme % Activity (relative to DMSO controls) Data 2 [8, 14]: 22.89%
- inhibition relative to DMSO controls ([8]; summary of Table 1): at least 7500
- remaining activity at 20 µM [9, 12]: 40.1%
- remaining activity at 20 µM [9, 13]: 37.1%
- inhibition relative to DMSO controls ([9]; summary of Table 1): at least 7500
- remaining activity at 20 µM [10, 12]: 114%
- remaining activity at 20 µM [10, 13]: 115%
- Enzyme % Activity (relative to DMSO controls) Data 1 [11, 15]: 66.70%
- Enzyme % Activity (relative to DMSO controls) Data 2 [11, 15]: 66.73%
- inhibition relative to DMSO controls ([11]; summary of Table 1): at least 7500
